Laboratory results published in US7256200B2, “Method and composition for potentiating an oplate analgesic” (The Board of Trustees of the University of Illinois, a body …, priority 2003, dated 2007).
“Also recorded” adds a separate entry of the source.

Tests used:
[1] = tested on: mice; test: Chronic mouse model of opioid tolerance (s.c. 75 mg morphine pellet); type: in vivo; conditions: FIG. 5
Description: Additional in vivo tests corroborated initial test results showing that administration of a CaMKII inhibitor reduces or eliminates opioid tolerance and dependence. […] Administration of a CaMKII inhibitor, i.e., KN93, effectively reversed the established tolerance to opioids (FIG. 5). The effect of KN93 is dose dependent.

[2] = tested on: CaMKII; test: Spinal CaMKII activity (pCaMKII Western blot) in morphine-pelleted rats; type: in vivo, rat; conditions: lumbar spinal cord, morphine vs placebo pelleted rats, two pairs of animals, β-actin control; FIG. 4
Description: The average increase of CaMKII activity from two pairs of animals was 250%.
Briefly, while under isoflurane anesthesia, a 1.5 cm incision was made on the back of the animal. Morphine and placebo pellets were implanted into the subcutaneous space and the incision was closed with wound clips. These pellets were left for less than 7 days unless otherwise indicated.
Rats were sacrificed by carbon dioxide inhalation and decapitated. The spinal column was cut through at the S1/S2 level. A 16-gauge needle was inserted in the sacral vertebral canal, attached to a syringe containing ice-cold saline, and the spinal cord was ejected through the cervical opening. The spinal cord was placed on ice in a glass Petri dish and rapidly dissected using a dissecting microscope. For consistency, the lumbar enlargement corresponding to the L1 to L6 spinal segments was excised and used for all assays. […]
Spinal segments or harvested SH-SY5Y cells were homogenized on ice in RIPA buffer (1% NP-40, 0.5% sodium deoxycholate, 0.1% sodium dodecyl sulfate (SDS), 5 mM EDTA in PBS, pH 7.4) (3 ml/g wet tissue, or 0.6 ml/10 cm dish) in the presence of protease inhibitors (0.05 mg/ml pepstatin, 0.05 mg/ml aprotinin, 0.1 mg/ml phenylmethylsulfonyl fluoride). […] ECL-detected bands were analyzed using a densitometer and. Quantity One analysis program (BioRad, Hercules, Calif.).

[3] = tested on: morphine-pelleted rats; test: Morphine antinociceptive tolerance in morphine-pelleted rats, 52° C. warm water tail-flick test; type: in vivo, rat
Protocol: Individual groups of eight rats were implanted with i.th. catheters and allowed to recover for 5 to 7 days.
Individual groups of eight rats were implanted with i.th. catheters and allowed to recover for 5 to 7 days. […] KN93 dose-response effect was determined and compared to its effect in inhibiting CaMKII activity.
Male Sprague-Dawley rats (250-350 g) were used in all experiments.
For i.th. drug administration, rats were prepared according to the method described by Sakura et al. (1996). While under isoflurane anesthesia, an 8 cm length of PE10 tubing (32 gauge) was inserted through an incision made in the atlantooccipital membrane to the level of the lumbar enlargement. The catheter then was secured to the musculature at the site of incision, which then was closed. The rats were allowed 5 to 7 days to recover before experiments begin. […] Intrathecally administered substances were dissolved in saline and administered in a volume of 5 μl through a tubing with calibrated length connecting the i.th. catheter with the injection syringe. Progress of the injection was monitored carefully by observing the movement of a small air bubble (1 μl in volume) through the tubing. The catheter was cleared by flushing with 9 μl saline. In all cases, a dye was injected into the cannula at the termination of the experiment to ensure correct i.th. placement.
Briefly, while under isoflurane anesthesia, a 1.5 cm incision was made on the back of the animal. […] These pellets were left for less than 7 days unless otherwise indicated.
Latency to warm water tail withdrawal response was determined in the manner described previously (Wang et al., 2001, Vanderah et al., 2001). The one-third of distal tail was immersed into a water bath maintained at 52° C. […] The data were converted to % MPE (maximal possible effect), defined as 100×(test-control)/(cutoff-control), where control was the predrug observation, test was the postdrug observation, and cutoff was 10 seconds. Dose-response curves were generated over time to determine the time of peak effect, the dose producing 50% MPE (A50), and its confidence intervals (Tallarida et al., 1986).

[4] = Acute model of opioid tolerance (single s.c. morphine 100 mg/kg); type: in vivo; conditions: for prevention of opioid tolerance, acute model: administered simultaneously with morphine 100 mg/kg s.c., FIG. 6
Description: (§1) Acute tolerance and dependence model is a method commonly used by researchers. […] In addition, the CaMKII inhibitor KN93 also was effective in reversing an already-established tolerance or dependence in the model (FIGS. 8 and 9). […] All effects are dose-dependent on the magnitude of inhibition of CaMKII.

[5] = target: CaMKII (Homo sapiens, UniProt Q9UQM7); conditions: structural analog of KN93 used as control; cited from earlier work
CaMKII (Homo sapiens, UniProt Q9UQM7), sequence (Q9UQM7 whole entry): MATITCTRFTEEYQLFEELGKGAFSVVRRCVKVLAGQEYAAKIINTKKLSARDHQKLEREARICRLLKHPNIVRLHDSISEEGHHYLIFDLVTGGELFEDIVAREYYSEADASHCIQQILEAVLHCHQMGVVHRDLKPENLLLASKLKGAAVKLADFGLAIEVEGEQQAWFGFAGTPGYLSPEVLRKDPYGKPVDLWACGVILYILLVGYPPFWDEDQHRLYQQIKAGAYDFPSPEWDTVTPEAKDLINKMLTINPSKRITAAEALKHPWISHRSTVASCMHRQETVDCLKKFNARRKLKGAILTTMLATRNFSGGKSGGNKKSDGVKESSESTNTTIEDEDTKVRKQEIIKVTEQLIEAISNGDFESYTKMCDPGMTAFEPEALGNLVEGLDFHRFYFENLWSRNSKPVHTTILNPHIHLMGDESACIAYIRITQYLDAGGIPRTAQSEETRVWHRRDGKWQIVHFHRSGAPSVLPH

[6] = tested on: protein kinase A; conditions: at doses administered; cited from earlier work
[7] = Acute model of opioid dependence (single s.c. morphine 100 mg/kg); type: in vivo
Description: as §1

[8] = tested on: PKC; conditions: at doses administered; cited from earlier work

Compound | antinociceptive effects of morphine after chronic morphine treatment ([1]; s.c. 75 mg controlled-release pellet up to seven days) | average increase of CaMKII activity (pCaMKII content) [2] [%] | antinociceptive effect of acute i.th. morphine in morphine-pelleted vs placebo-pelleted rats ([3]; two 75 mg morphine pellets s.c., day 5, i.th. morphine 10 μg, 30 minutes, FIG. 3) | prevention of opioid tolerance, acute model [4] | inhibition of CaMKII [5] | effect on established opioid tolerance, chronic model ([1]; chronic morphine pellet) | inhibition of protein kinase A [6] | reversal of established opioid tolerance, acute model ([4]; already-established tolerance, FIG. 8) | prevention of opioid dependence, acute model ([7]; administered simultaneously with morphine 100 mg/kg s.c., FIG. 7) | reversal of established opioid dependence, acute model ([7]; already-established dependence, FIG. 9) | effect on established morphine antinociceptive tolerance ([3]; KN93 15 nmol i.th. 15 minutes before i.th. morphine, 45 minutes before tail-flick, p<0.05 vs MS group, FIG. 3) | effect on basal nociception ([3]; KN93 alone, data not shown) | effect on morphine-antinociception in naïve rats ([3]; naïve rats, data not shown) | effect on morphine-induced analgesia ([3]; summary of test results) | inhibition of PKC [8]
CN1CC[C@]23c4c5ccc(O)c4O[C@H]2[C@@H](O)C=C[C@H]3[C@H]1C5 [morphine] | significantly reduced antinociceptive effects | 250 | significantly reduced antinociceptive effect |  |  |  |  |  |  |  |  |  |  |  | 
COc1ccc(S(=O)(=O)Nc2ccccc2CN(C)C/C=C/c2ccc(Cl)cc2)cc1 [KN92] |  |  |  | does not affect opioid tolerance | does not inhibit |  |  |  |  |  |  |  |  |  | 
COc1ccc(S(=O)(=O)N(CCO)c2ccccc2CN(C)CC=Cc2ccc(Cl)cc2)cc1 [KN93] |  |  |  | prevents opioid tolerance |  | dose-dependently reverses | does not inhibit | dose-dependently reverses | dose-dependently prevents | dose-dependently reverses | reversed; also recorded: blocked | did not alter | nor did KN93 affect | does not affect | does not inhibit
